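Method: 48-hour compound exposure of cells in 96-well plates, five concentrations, linear interpolation of endpoints. The concentration for 50% growth inhibition is given as GI50. Definition used: TGI = concentration required for complete inhibition of growth.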
Key:
Assay in all cases: growth of human tumour cells (NCI), 48 h
A498 renal = system: A498 renal
T-47D breast = system: T-47D breast
NCI-H460 lung = system: NCI-H460 lung
OVCAR-3 ovarian = system: OVCAR-3 ovarian
OVCAR-5 ovarian = system: OVCAR-5 ovarian
A549 NSCLC = system: A549 NSCLC
UACC-62 melanoma = system: UACC-62 melanoma
MDA-MB-435 = system: MDA-MB-435
HL-60(TB) leukemia = system: HL-60(TB) leukemia
SK-OV-3 ovarian = system: SK-OV-3 ovarian

SMILES	TGI (A498 renal) [µM]	TGI (T-47D breast) [µM]	TGI (NCI-H460 lung) [µM]	TGI (OVCAR-3 ovarian) [µM]	TGI (OVCAR-5 ovarian) [µM]	TGI (A549 NSCLC) [µM]	TGI (UACC-62 melanoma) [µM]	TGI (MDA-MB-435) [µM]	TGI (HL-60(TB) leukemia) [µM]	GI50 (SK-OV-3 ovarian) [µM]	TGI (SK-OV-3 ovarian) [µM]	GI50 (OVCAR-5 ovarian) [µM]	GI50 (A498 renal) [µM]	GI50 (T-47D breast) [µM]	GI50 (NCI-H460 lung) [µM]	GI50 (OVCAR-3 ovarian) [µM]	GI50 (A549 NSCLC) [µM]	GI50 (UACC-62 melanoma) [µM]	GI50 (MDA-MB-435) [µM]	GI50 (HL-60(TB) leukemia) [µM]
O=c1oc2c(Br)c(O)c(Br)cc2c2ccccc12	58.5	96.5	57	40.7	> 100	87.1	50.5	> 100	52.3	–	–	–	–	–	–	–	–	–	–	–
Nc1ccn(C2OC(CO[P+](=O)OC3C(CO[P+](=O)OC4C(CO[P+](=O)OC5C(CO[P+](=O)OC6C(CO[P+](=O)OC7C(CO[P+](=O)OC8C(CO[P+](=O)OC9C(CO[P+](=O)OC%10C(CO[P+](=O)OC%11C(CO)OC(n%12ccc(N)nc%12=O)C%11(F)F)OC(n%11ccc(N)nc%11=O)C%10(F)F)OC(n%10ccc(N)nc%10=O)C9(F)F)OC(n9ccc(N)nc9=O)C8(F)F)OC(n8ccc(N)nc8=O)C7(F)F)OC(n7ccc(N)nc7=O)C6(F)F)OC(n6ccc(N)nc6=O)C5(F)F)OC(n5ccc(N)nc5=O)C4(F)F)OC(n4ccc(N)nc4=O)C3(F)F)C(O)C2(F)F)c(=O)n1 (stereo not drawn)	> 100	> 100	–	> 100	> 100	> 100	–	> 100	0.18	0.255	> 100	9.59	–	–	–	–	–	–	–	–
Cn1c(=O)c(Sc2ccccc2F)cc2cnc(NC3CCOCC3)nc21	> 25	> 25	> 25	> 25	> 25	> 25	> 25	> 25	> 25	> 25	> 25	> 25	> 25	> 25	> 25	> 25	> 25	> 25	> 25	> 25
C=CC[Se]C(=O)c1ccccc1OC(C)=O	5.62	6.06	1.84	3.51	–	> 100	3.35	3.35	6.54	1.2	2.54	–	0.885	2.45	0.36	1.95	0.769	1.79	1.72	2.4
O=C1OCC2=C1C(c1ccccc1)c1cc3c(cc1N2CCO)CCC3 (stereo not drawn)	0.657	> 25	3.51	0.0975	> 25	> 25	> 25	0.129	1.94	0.097	8.73	0.203	0.0746	0.0922	0.09	0.0467	0.152	0.111	0.0429	0.0871
COC(=O)C1=C2C3=C(C(=O)c4ccccc4C3=O)N(Cc3ccccc3)C2(OC(C)=O)C=CC1=O (stereo not drawn)	–	> 100	> 100	–	> 100	> 100	32.7	25.3	–	27.6	> 100	18.4	–	66.4	5.93	–	27.6	10.6	9.52	–
CCOC(=O)NC(=O)c1cn(CCCCCCCCCCC(=O)N2CCN(CCn3cc(C(=O)NC(=O)OCC)c(=O)[nH]c3=O)CC2)c(=O)[nH]c1=O	> 100	–	> 100	> 100	–	> 100	> 100	–	> 100	–	> 100	–	–	–	–	–	–	–	–	–
CCCCC(SC(=S)N(CC)CC)C(=O)Nc1nc(CC(=O)OCC)cs1 (stereo not drawn)	> 100	> 100	–	> 100	> 100	> 100	> 100	> 100	98.5	75.6	> 100	40.3	54.3	24.7	–	13.7	30.8	29.8	31.4	28.6
CCC[CH2][Sn]([CH2]CCC)([O]C(=O)c1cc(OC)c(OC)c(OC)c1)[O]C(=O)c1cc(OC)c(OC)c(OC)c1	3.02	–	9.21	2.59	3.83	13.8	2.12	–	–	1.69	3.25	2.32	1.17	–	2.96	1.26	3.59	0.892	–	–
CCOC(=O)/C(=C/c1cc(OC)ccc1OC)CC(=O)O	> 100	–	> 100	> 100	–	> 100	> 100	–	> 31.6	–	> 100	–	–	–	–	–	–	–	–	–
OCC1OC(n2ccc3cnccc32)CC1O (stereo not drawn)	> 100	–	> 100	> 100	> 100	> 100	> 100	–	> 100	–	> 100	–	–	–	–	–	–	–	–	–
O=[N+]([O-])c1ccc(Oc2cccnc2)c([N+](=O)[O-])c1	43.1	30.1	47.8	6.99	16.9	–	17.3	–	–	3.28	9.73	3.26	18.7	7.3	10.5	2.75	–	3.75	–	–
Cc1c(NC(=O)CCCl)c(=O)oc2c(C)c3occc(=O)c3cc12	76.2	> 100	> 100	–	> 100	> 100	–	–	> 100	–	> 100	–	–	–	–	–	–	–	–	–
Cc1ccccc1NC(=O)N/C(N)=N/c1nc2ccccc2s1	0.142	–	> 100	0.267	> 100	> 100	> 100	0.0553	0.15	0.416	> 100	0.488	0.0261	–	0.113	0.0358	0.0871	0.0425	0.0208	0.0285
CCCCCCCCC(=O)CCCCCCCCC(=O)O	47.8	–	44.6	40.1	55.3	45.2	54.6	–	16.2	–	> 100	–	–	–	–	–	–	–	–	–
COC(=O)C1C(=O)O[C@@H](c2ccc(OC)cc2)C1C(=O)OC (stereo partly drawn)	> 100	–	–	> 100	> 100	> 100	> 100	–	–	–	> 100	–	–	–	–	–	–	–	–	–

Source: PubChem BioAssay (NCI)
